Experimental data published in US11332459B2 (TEIJIN PHARMA LIMITED, priority 2017, dated 2022).
Where a name gives a salt, the structure may show the parent alone.

Biological target: T1, human TRPC6 (Homo sapiens, UniProt Q9Y210)
T1 construct: expressed in transfected cells
T1 sequence (Q9Y210 1-931): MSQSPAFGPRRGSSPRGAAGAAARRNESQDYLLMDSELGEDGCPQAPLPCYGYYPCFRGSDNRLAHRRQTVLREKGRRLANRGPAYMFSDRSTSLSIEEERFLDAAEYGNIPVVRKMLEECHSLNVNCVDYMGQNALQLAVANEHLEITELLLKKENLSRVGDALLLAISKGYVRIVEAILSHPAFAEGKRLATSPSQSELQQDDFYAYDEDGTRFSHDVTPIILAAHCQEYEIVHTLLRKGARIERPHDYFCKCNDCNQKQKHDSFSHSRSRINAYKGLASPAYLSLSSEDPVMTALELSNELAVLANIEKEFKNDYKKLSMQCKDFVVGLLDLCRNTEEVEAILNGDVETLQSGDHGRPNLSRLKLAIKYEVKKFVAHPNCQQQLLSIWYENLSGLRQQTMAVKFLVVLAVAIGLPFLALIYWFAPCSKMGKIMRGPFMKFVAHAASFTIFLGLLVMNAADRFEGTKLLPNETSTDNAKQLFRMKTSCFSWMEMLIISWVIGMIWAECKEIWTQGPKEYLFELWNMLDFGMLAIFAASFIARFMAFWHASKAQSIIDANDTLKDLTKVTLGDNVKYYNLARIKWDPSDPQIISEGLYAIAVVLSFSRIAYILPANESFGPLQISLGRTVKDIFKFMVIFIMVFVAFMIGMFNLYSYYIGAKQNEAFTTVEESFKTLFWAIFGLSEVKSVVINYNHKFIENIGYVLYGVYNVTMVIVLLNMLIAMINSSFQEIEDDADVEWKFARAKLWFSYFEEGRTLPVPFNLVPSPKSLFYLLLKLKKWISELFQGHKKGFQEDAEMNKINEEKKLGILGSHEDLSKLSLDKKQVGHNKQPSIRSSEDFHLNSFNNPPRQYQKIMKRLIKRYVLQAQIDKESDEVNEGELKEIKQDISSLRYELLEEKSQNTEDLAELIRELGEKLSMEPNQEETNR
Experiment: TRPC6 calcium flux assay (FLIPR, OAG-stimulated calcium influx)
Format: cell-based
Conditions: HEK293 cells stably transfected with human TRPC6, read-out: hTRPC6 Potency
How it was run: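 HEK293 cells stably expressing human TRPC6, loaded with calcium dye 90–120 min at RT, then given compound for 25 min before OAG (50 uM final, 0.5% DMSO) in HEPES buffer pH 7.2 with 2 mM CaCl2. Background-subtracted FLIPR peak over 180 s normalized to OAG vs buffer; IC50 from dose plot.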

Molecule | IC50 [nM]
N#Cc1ccc(Cn2c(N3CC[C@@H](O)[C@H](N)C3)nc3ccc(F)cc32)nc1 [Example 207, 6-((2-((3R,4R)-3-amino-4-hydroxypiperidin-1-yl)-6-fluoro-1H-benzo[d]imidazol-1-yl)methyl)nicotinonitrile] | 49.6
N#CCCN(CC1CCOC1)C(=O)Cn1c(N2CC[C@@H](F)[C@H](N)C2)nc2cc(F)c(F)cc21 (stereo partly drawn) [Example 643, 2-(2-((3R,4R)-3-amino-4-fluoropiperidin-1-yl)-5,6-difluoro-1H-benzo[d]imidazol-1-yl)-N-(2-cyanoethyl)-N-((tetrahydrofuran-3-yl)methyl)acetamide] | 1820
N[C@@H]1CN(c2nc3cc(F)c(F)cc3n2CC(=O)N2C[C@@H]3[C@H](C2)C3(F)F)CC[C@H]1F [Example 623, 2-(2-((3R,4R)-3-amino-4-fluoropiperidin-1-yl)-5,6-difluoro-1H-benzo[d]imidazol-1-yl)-1-((1R,5S)-6,6-difluoro-3-azabicyclo[3.1.0]hexan-3-yl)ethanone] | 89
N#Cc1ccc2nc(N3CC[C@@H](F)[C@H](N)C3)n(Cc3ccc(F)cn3)c2c1 [Example 190, 2-((3R,4R)-3-amino-4-fluoropiperidin-1-yl)-1-((5-fluoropyridin-2-yl)methyl)-1H-benzo[d]imidazole-6-carbonitrile] | 4.02
N[C@@H]1CN(c2nc3cc(F)c(F)cc3n2Cc2ccc(F)c(F)c2)CC[C@H]1F [Example 357, (3R,4R)-1-(1-(3,4-difluorobenzyl)-5,6-difluoro-1H-benzimidazol-2-yl)-4-fluoro-3-piperidinamine] | 24.5
CC(c1cccc(C#N)c1)n1c(N2CC[C@@H](F)[C@H](N)C2)nc2cc(F)c(F)cc21 (mixture of isomers) [Example 302, 3-(1-(2-((3R,4R)-3-amino-4-fluoropiperidin-1-yl)-5,6-difluoro-1H-benzo[d]imidazol-1-yl)ethyl)benzonitrile] | 101
N#Cc1ccc(Cn2c(N3CC[C@@H](F)[C@H](N)C3)nc3c(F)cc(F)cc32)nc1 [Example 63, 6-((2-((3R,4R)-3-amino-4-fluoropiperidin-1-yl)-4,6-difluoro-1H-benzo[d]imidazol-1-yl)methyl)nicotinonitrile] | 0.389
N[C@@H]1CN(c2nc3cc(F)cc(F)c3n2Cc2ccc(Cl)cn2)CCC1(F)F [Example 229, (R)-1-(1-((5-chloropyridin-2-yl)methyl)-5,7-difluoro-1H-benzo[d]imidazol-2-yl)-4,4-difluoropiperidin-3-amine hydrochloride] | 42.2
N[C@@H]1CN(c2nc3cc(F)c(F)cc3n2CC(=O)N(C2CC2)C2CCS(=O)(=O)C2)CC[C@H]1F (stereo partly drawn) [Example 526, 2-(2-((3R,4R)-3-amino-4-fluoropiperidin-1-yl)-5,6-difluoro-1H-benzo[d]imidazol-1-yl)-N-cyclopropyl-N-(1,1-dioxidotetrahydrothiophen-3-yl)acetamide] | 2850
N#Cc1ccc(Cn2c(N3CCC4CCN[C@@H]4C3)nc3ccccc32)nc1 (stereo partly drawn) [Example 25, 6-((2-((3aS,7aS)-hexahydro-1H-pyrrolo[2,3-c]pyridin-6(2H)-yl)-1H-benzo[d]imidazol-1-yl)methyl)nicotinonitrile] | 210
N#Cc1ccc(Cn2c(N3CC[C@@H](F)[C@H](N)C3)nc3cc(F)c(F)cc32)cc1Cl [Example 346, 4-((2-((3R,4R)-3-amino-4-fluoro-1-piperidinyl)-5,6-difluoro-1H-benzimidazol-1-yl)methyl)-2-chlorobenzonitrile] | 1.39
N#Cc1ccc(Cn2c(N3C[C@@H]4NCCO[C@@H]4C3)nc3ccccc32)nc1 [Example 99, 6-((2-((4aS,7aR)-hexahydropyrrolo[3,4-b][1,4]oxazin-6(2H)-yl)-1H-benzo[d]imidazol-1-yl)methyl)nicotinonitrile hydrochloride] | > 3750
CC(F)(F)c1ccc(Cn2c(N3CC[C@@H](F)[C@H](N)C3)nc3cc(F)c(F)cc32)cc1 [Example 344, (3R,4R)-1-(1-(4-(1,1-difluoroethyl)benzyl)-5,6-difluoro-1H-benzimidazol-2-yl)-4-fluoro-3-piperidinamine] | 85.3
N#Cc1ccc(Cn2c(N3CCC[C@H](N)C3)nc3ccccc32)nc1 [Example 70, (S)-6-((2-(3-aminopiperidin-1-yl)-1H-benzo[d]imidazol-1-yl)methyl)nicotinonitrile] | 2.32
N#Cc1ccc(Cn2c(N3CC[C@@H](F)[C@H](N)C3)nc3cc(C(F)(F)F)c(Cl)cc32)nc1 [Example 126, 6-((2-((3R,4R)-3-amino-4-fluoro-1-piperidinyl)-6-chloro-5-(trifluoromethyl)-1H-benzimidazol-1-yl)methyl)-3-pyridinecarbonitrile] | 0.48
N#Cc1ccc(Cn2c(N3CC[C@H](F)[C@H](N)C3)nc3ccc(Cl)cc32)nc1 [Example 8, 6-((2-((3R,4S)-3-amino-4-fluoropiperidin-1-yl)-6-chloro-1H-benzo[d]imidazol-1-yl)methyl)nicotinonitrile] | 0.283
N#Cc1ccc(Cn2c(N3CC[C@H](F)[C@H](N)C3)nc3cc(F)c(F)cc32)nc1 [Example 83, 6-((2-((3R,4S)-3-amino-4-fluoropiperidin-1-yl)-5,6-difluoro-1H-benzo[d]imidazol-1-yl)methyl)nicotinonitrile hydrochloride] | 0.906
N#Cc1ccc2c(c1)nc(N1CCC(F)(F)[C@H](N)C1)n2Cc1ncc(Cl)cn1 [Example 42, (R)-2-(3-amino-4,4-difluoropiperidin-1-yl)-1-((5-chloropyrimidin-2-yl)methyl)-1H-benzo[d]imidazole-5-carbonitrile] | 1940
(3R,4R)-4-fluoro-1-(6- fluoro-1-((4- methoxypyridin-2- yl)methyl)-1H- benzo[d]imidazol-2- yl)piperidin-3-amine [Example 517] | 319
N[C@@H]1CN(c2nc3cc(F)c(F)cc3n2CC(=O)N2CC(n3cncn3)C2)CC[C@H]1F [Example 641, 1-(3-(1H-1,2,4-triazol-1-yl)azetidin-1-yl)-2-(2-((3R,4R)-3-amino-4-fluoropiperidin-1-yl)-5,6-difluoro-1H-benzo[d]imidazol-1-yl)ethanone] | 1280
C[C@H](c1ccc(Cl)c(Cl)c1)n1c(N2CC[C@@H](F)[C@H](N)C2)nc2cc(F)c(F)cc21 [Example 332, (3R,4R)-1-(1-((1R)-1-(3,4-dichlorophenyl)ethyl)-5,6-difluoro-1H-benzimidazol-2-yl)-4-fluoro-3-piperidinamine] | 3200
N[C@@H]1CN(c2nc3cc(C(F)(F)F)ccc3n2CC(=O)N2CCOCC2)CC[C@@H]1F [Example 478, 2-(2-((3R,4S)-3-amino-4-fluoropiperidin-1-yl)-5-(trifluoromethyl)-1H-benzo[d]imidazol-1-yl)-1-morpholinoethan-1-one] | 1050
N#Cc1ccc(Cl)cc1Cn1c(N2CC[C@@H](F)[C@H](N)C2)nc2cc(F)c(F)cc21 [Example 347, 2-((2-((3R,4R)-3-amino-4-fluoro-1-piperidinyl)-5,6-difluoro-1H-benzimidazol-1-yl)methyl)-4-chlorobenzonitrile] | 1.07
CNC(=O)C1CCCN(C(=O)Cn2c(N3CC[C@@H](F)[C@H](N)C3)nc3cc(F)c(F)cc32)C1 (stereo partly drawn) [Example 654, 1-(2-(2-((3R,4R)-3-amino-4-fluoropiperidin-1-yl)-5,6-difluoro-1H-benzo[d]imidazol-1-yl)acetyl)-N-methylpiperidine-3-carboxamide] | > 3750
N[C@@H]1CN(c2nc3cc(Cl)ccc3n2CC(=O)N2CCC2)CC[C@H]1F [Example 286, 2-(2-((3R,4R)-3-amino-4-fluoro-1-piperidinyl)-5-chloro-1H-benzimidazol-1-yl)-1-(1-azetidinyl)ethanone] | 562
N#Cc1cnc(Cn2c(N3CC[C@@H](F)[C@H](N)C3)nc3c(F)cc(F)cc32)cn1 [Example 251, 5-((2-((3R,4R)-3-amino-4-fluoro-1-piperidinyl)-4,6-difluoro-1H-benzimidazol-1-yl)methyl)-2-pyrazinecarbonitrile] | 17.2
CN(CC(F)F)C(=O)Cn1c(N2CC[C@@H](F)[C@H](N)C2)nc2cc(F)c(F)cc21 (single isomer, unassigned) [Example 634] | 260
N#Cc1ccc(Cn2c(N3CC[C@H](F)[C@H](N)C3)nc3ccc(C#N)cc32)nc1 [Example 68, 2-((3R,4S)-3-amino-4-fluoropiperidin-1-yl)-1-((5-cyanopyridin-2-yl)methyl)-1H-benzo[d]imidazole-6-carbonitrile] | 1.82
